Results as given in ChEMBL document CHEMBL4184282, “Structure-based design and synthesis of macrocyclic human rhinovirus 3C protease inhibitors” (Bioorg Med Chem Lett, 2018).
Square brackets hold non-standard residues; d marks the D form. Peptide text beside a SMILES is read from it. * marks the point of attachment. ξ: configuration not given here. Cbz = O=C(OCc1ccccc1)*; ξDap = NCC(N)C(=O)O

Assays:
[1] = biological target: Genome polyprotein (rhinovirus B14, UniProt P03303); assay: Inhibition of Human rhinovirus serotype 14 3C protease preincubated for 1 hr followed by Cys(PT14M)-Ala-Ile-Phe-Gln'Gly-Pro-Asp-Phe(4-NH2)-OH substrate addition measured after 1 hr by fluorescence lifetime readout assay
[2] = tested on: rhinovirus B14; assay: Antiviral activity against Human rhinovirus serotype 14 infected in human HeLa cells assessed as reduction in virus-induced cytopathic effect by measuring reduction in host cell viability preincubated with cells for 6 hrs followed by viral infection measured up to 72 hrs by CellTiter-Glo luminescence assay; assay type: functional, organism-based; details: Rhinovirus B

Chain of Genome polyprotein (P03303 1538-1719 limits assumed): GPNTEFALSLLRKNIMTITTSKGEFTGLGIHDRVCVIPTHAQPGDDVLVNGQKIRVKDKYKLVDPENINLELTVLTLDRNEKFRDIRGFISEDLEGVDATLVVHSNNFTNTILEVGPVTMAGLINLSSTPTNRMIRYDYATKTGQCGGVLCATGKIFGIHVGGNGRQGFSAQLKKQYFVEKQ

SMILES | IC50 [1] [nM] | EC50 [2] [nM]
Cc1cc(C(=O)N[C@H]2CCCCN(C)C(=O)CC[C@@H](C=O)NC(=O)[C@@H]3C[C@@H](c4ccccc4)CN3C2=O)no1 | 7370 | 28600
Cc1cc(C(=O)N[C@H]2CCCCN(C)C(=O)CC[C@@H](C(=O)C(=O)N3CCC3)NC(=O)[C@H](Cc3ccc(F)cc3)NC2=O)no1 | 35 | 6100
CCOC(=O)/C=C/[C@@H]1CCC(=O)N(C)CCCC[C@H](NC(=O)c2cc(C)on2)C(=O)N[C@@H](Cc2ccc(F)cc2)C(=O)N1 | 3840 | > 50000
Cc1cc(C(=O)N[C@@H]2C(=O)N[C@@H](Cc3ccc(F)cc3)C(=O)N[C@H](C=O)CCC(=O)NCc3cccc2c3)no1 | 753 | 21900
Cc1cc(C(=O)N[C@@H]2C(=O)N[C@@H](Cc3ccc(F)cc3)C(=O)N[C@H](C=O)CCC(=O)N(C)Cc3cccc2c3)no1 | 8 | 568
Cc1cc(C(=O)N[C@H]2CNC(=O)CN(C)C(=O)CC[C@@H](C=O)NC(=O)[C@H](Cc3ccc(F)cc3)NC2=O)no1 | 18 | > 50000
CC(=O)NCC(C=O)NC(=O)[C@H](Cc1ccccc1)NC(=O)[C@H](CC(C)C)NC(=O)OCc1ccccc1 (stereo partly drawn) (Cbz-Leu-Phe-[ξDap](Ac)-aldehyde) | 7 | 1760

The next lines start with results.

IC50 [1] [nM] | SMILES | EC50 [2] [nM]
2 | Cc1cc(C(=O)N[C@H]2CCCNC(=O)[C@H]3CCN(C3)C(=O)CC[C@@H](C=O)NC(=O)[C@H](Cc3ccc(F)cc3)NC2=O)no1 | > 50000
3200 | Cc1cc(C(=O)N[C@H]2CCCCNC(=O)CC[C@@H](C=O)NC(=O)[C@H](Cc3ccc(F)cc3)NC2=O)no1 | > 50000
6 | Cc1cc(C(=O)N[C@H]2CNC(=O)[C@H]3CCCN3C(=O)CC[C@@H](C=O)NC(=O)[C@H](Cc3ccc(F)cc3)NC2=O)no1 | 33500
63 | Cc1cc(C(=O)N[C@H]2CCCCN(C)C(=O)CC[C@@H](C=O)NC(=O)[C@H](Cc3ccc(F)cc3)NC2=O)no1 | 3400
2 | Cc1cc(C(=O)N[C@H]2CNC(=O)C[C@H]3CCCN3C(=O)CC[C@@H](C=O)NC(=O)[C@H](Cc3ccc(F)cc3)NC2=O)no1 | 29100
2 | Cc1cc(C(=O)N[C@H]2C/C=C/CCCO[C@H]3CCN(C3)C(=O)CC[C@@H](C=O)NC(=O)[C@H](Cc3ccc(F)cc3)NC2=O)no1 | 2050
3 | Cc1cc(C(=O)N[C@H]2C/C=C/CO[C@H]3CCN(C3)C(=O)CC[C@@H](C=O)NC(=O)[C@H](Cc3ccc(F)cc3)NC2=O)no1 | 5740
